Numbered stars: 1 amine (or outer) side, 2 acyl side, 3 side chain; on linkers, the order of the positions; unused ones are H or OH. Bridge positions count the residues as written; N and C are the ends. Square brackets hold non-standard residues; d marks the D form. Side chains are listed from the residue outwards. Ends that are not written are not given here. Peptide text beside a SMILES is read from it. * marks the point of attachment. C20 diacid = O=C(O)CCCCCCCCCCCCCCCCCCC(=O)*; C18 diacid = O=C(O)CCCCCCCCCCCCCCCCC(=O)*; γGlu = O=C(O)[C@H](CCC(=O)[*:2])N[*:1]; αMeF = C[C@](N)(Cc1ccccc1)C(=O)O; Dab = NCC[C@H](N)C(=O)O; Aib = CC(C)(N)C(=O)O
Experiments:
[1] = cited from earlier work
[2] = biological target: T1, human calcitonin receptor (hCTR) (Homo sapiens, UniProt P30988); experiment: cAMP production in 1321N1 cells with stable recombinant expression of human calcitonin receptor (hCTR); format: cell-based; settings: 1321N1 cells expressing human calcitonin receptor
T1 construct: expressed in transfected cells
T1 sequence (P30988 25-474): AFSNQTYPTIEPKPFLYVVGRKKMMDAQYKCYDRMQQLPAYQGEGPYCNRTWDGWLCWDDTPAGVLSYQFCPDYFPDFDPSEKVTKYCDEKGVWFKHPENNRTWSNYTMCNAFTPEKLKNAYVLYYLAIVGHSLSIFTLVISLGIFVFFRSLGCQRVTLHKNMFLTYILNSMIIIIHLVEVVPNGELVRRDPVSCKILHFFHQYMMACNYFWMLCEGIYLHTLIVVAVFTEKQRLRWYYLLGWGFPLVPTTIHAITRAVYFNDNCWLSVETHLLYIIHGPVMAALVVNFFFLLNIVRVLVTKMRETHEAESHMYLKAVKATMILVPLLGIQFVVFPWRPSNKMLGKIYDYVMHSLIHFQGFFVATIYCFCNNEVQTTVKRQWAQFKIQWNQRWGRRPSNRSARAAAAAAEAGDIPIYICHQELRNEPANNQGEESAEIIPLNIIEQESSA
Experimental: (§1) The functional activities of lipidated pramlintide analogue peptides, such as cAMP production, were tested in 1321N1 cell line with stable recombinant expression of human calcitonin receptor (hCTR) or human amylin receptor (calcitonin receptor co-expressed with receptor activity modifying protein, RAMP3) (hAMYR3) or HEK cells with stable recombinant expression of rat calcitonin receptor (rat CTR) or rat amylin receptor (calcitonin receptor co-expressed with receptor activity modifying protein, RAMP3) (Rat AMYR3).
(§2) Cryopreserved cell stock was thawed rapidly in a water-bath, suspended in assay buffer (0.1% BSA (Sigma #A3059) in HBSS (Sigma #H8264) with 25 mM HEPES, pH 7.4 and containing 0.5 mM IB MX (Sigma #17018)) and spun at 240×g for 5 minutes. Cells were re-suspended in assay buffer at a batch-dependent optimized concentration (e.g. hCTR cells at 0.125×10^5 cells/mL, hAMYR3 cells at 0.125×10^5 cells/mL, rat CTR cells at 1×10^5 cells/mL, rat AMYR3 at 2×10^5 cells/mL).
(§3) The test peptide stock was prepared in DMSO and diluted in assay buffer to reach stated concentrations and transferred in duplicates into a 384-black shallow well microtitre assay plate (Corning #3676). Cells were added to the assay plate, incubated at room temperature for 30 minutes and the CAMP level measured using CAMP dynamic 2 HTRF kit (Cisbio, Cat #62AM4PEJ), following the two step protocol as per manufacturer's recommendations. The plates were read on an Envision (Perkin Elmer) using excitation wavelength of 320 nm and emission wavelengths of 620 nm & 665 nm.
(§4) Data was transformed to % Delta F as described in the manufacturer's guidelines and analyzed as percent activation of maximal amylin or calcitonin effect by 4-parameter logistic fit to determine EC50 values. The selectivity of a peptide to hAMYR vs hCTR is defined as a ratio of EC50 values at the two receptors.

[3] = biological target: T2, human amylin receptor (calcitonin receptor co-expressed with receptor activity modifying protein, RAMP3) (hAMYR3) (Homo sapiens, UniProt O60896+P30988); experiment: cAMP production in 1321N1 cells with stable recombinant expression of human amylin receptor (hAMYR3); format: cell-based; settings: for EC50: cAMP production, 1321N1 cells expressing human amylin3 receptor; for Ratio (selectivity hAMYR vs hCTR, ratio of EC50 values at the two receptors): EC50 hCTR / EC50 hAMYR3
T2 construct: expressed in transfected cells
T2 sequence (P30988 25-474): T1 sequence (P30988 25-474)
T2 sequence (O60896 24-148 partner): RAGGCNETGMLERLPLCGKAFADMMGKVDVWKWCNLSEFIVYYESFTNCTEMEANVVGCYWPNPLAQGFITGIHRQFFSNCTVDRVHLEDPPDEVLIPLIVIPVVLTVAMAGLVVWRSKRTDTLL
Experimental: as §1, §2, §3, §4

amylin (KCNTATCATQRLANFLVHSSNNFGAILSSTNVGSNTY; not fully specified (C-terminus, bridges); cysteine pairing not given here; UniProt P10997 34-70, looked up) [native peptide hormone of which pramlintide is a synthetic analogue]
terminal half-life of amylin in rats [1]: around 13 minutes

CC[C@H](C)[C@H](NC(=O)[C@H](C)NC(=O)[C@@H]1CCCN1C(=O)[C@H](Cc1ccccc1)NC(=O)[C@H](CC(N)=O)NC(=O)[C@@H]1CCCN1C(=O)[C@H](CO)NC(=O)[C@H](CO)NC(=O)[C@H](Cc1c[nH]cn1)NC(=O)[C@@H](NC(=O)[C@H](CC(C)C)NC(=O)[C@H](Cc1c[nH]c2ccccc12)NC(=O)[C@H](CC(N)=O)NC(=O)[C@H](C)NC(=O)[C@H](CC(C)C)NC(=O)[C@H](CCCNC(=N)N)NC(=O)[C@H](CCC(N)=O)NC(=O)[C@@H](NC(=O)[C@H](C)NC(=O)[C@@H]1CSSC[C@H](NC(=O)[C@@H](N)CCCCNC(=O)CC[C@H](NC(=O)CC[C@H](NC(=O)CCCCCCCCCCCCCCCCCCC(=O)O)C(=O)O)C(=O)O)C(=O)N[C@@H](CC(N)=O)C(=O)N[C@@H](C)C(=O)N[C@@H](C)C(=O)N[C@@H]([C@@H](C)O)C(=O)N1)[C@@H](C)O)C(C)C)C(=O)N[C@@H](CC(C)C)C(=O)N[C@@H](CO)C(=O)N1CCC[C@H]1C(=O)N[C@H](C(=O)N[C@@H](CC(N)=O)C(=O)N[C@H](C(=O)NCC(=O)N[C@@H](CO)C(=O)N[C@@H](CC(N)=O)C(=O)N[C@H](C(=O)N[C@@H](Cc1ccc(O)cc1)C(N)=O)[C@@H](C)O)C(C)C)[C@@H](C)O [Peptide 120] (H-K([γGlu-γGlu-C20 diacid])CNAATCATQRLANWLVHSSPNFPAILSPTNVGSNTY-NH2; disulfide 2-7; N-terminus assumed)
EC50 [2]: 10.7 nM | EC50 [3]: 1.77 nM

CC[C@H](C)[C@H](NC(=O)[C@H](C)NC(=O)[C@@H]1CCCN1C(=O)[C@H](Cc1ccccc1)NC(=O)[C@H](CC(N)=O)NC(=O)C(C)(C)NC(=O)[C@H](CO)NC(=O)[C@H](CO)NC(=O)[C@H](Cc1c[nH]cn1)NC(=O)[C@@H](NC(=O)[C@H](CC(C)C)NC(=O)[C@H](Cc1ccccc1)NC(=O)[C@H](CC(N)=O)NC(=O)[C@H](C)NC(=O)[C@H](CC(C)C)NC(=O)[C@H](CCCNC(=N)N)NC(=O)[C@H](CCC(N)=O)NC(=O)[C@@H](NC(=O)[C@H](C)NC(=O)[C@@H]1CSSC[C@H](NC(=O)[C@@H](N)CCCCNC(=O)CC[C@H](NC(=O)CC[C@H](NC(=O)CCCCCCCCCCCCCCCCCCC(=O)O)C(=O)O)C(=O)O)C(=O)N[C@@H](CC(N)=O)C(=O)N[C@@H]([C@@H](C)O)C(=O)N[C@@H](C)C(=O)N[C@@H]([C@@H](C)O)C(=O)N1)[C@@H](C)O)C(C)C)C(=O)N[C@@H](CC(C)C)C(=O)N[C@@H](CO)C(=O)N1CCC[C@H]1C(=O)N[C@H](C(=O)N[C@@H](CC(N)=O)C(=O)N[C@H](C(=O)NCC(=O)N[C@@H](CO)C(=O)N[C@@H](CCN)C(=O)N[C@H](C(=O)N[C@@H](Cc1ccc(O)cc1)C(N)=O)[C@@H](C)O)C(C)C)[C@@H](C)O [Peptide 125, K(γE-γE-C20diacid)[CNTATC]ATQRLANFLVHSS(Aib)NFPAILSPTNVGS(Dab)TY-amide] (H-K([γGlu-γGlu-C20 diacid])CNTATCATQRLANFLVHSS[Aib]NFPAILSPTNVGS[Dab]TY-NH2; disulfide 2-7 (inferred))
EC50 [3]: 1.2 nM

CC[C@H](C)[C@H](NC(=O)[C@@H]1CCCN1C(=O)CNC(=O)[C@H](Cc1ccccc1)NC(=O)[C@H](CC(N)=O)NC(=O)C(C)(C)NC(=O)[C@H](CO)NC(=O)[C@H](CO)NC(=O)[C@H](Cc1c[nH]cn1)NC(=O)[C@@H](NC(=O)[C@H](CC(C)C)NC(=O)[C@H](Cc1ccccc1)NC(=O)[C@H](CC(N)=O)NC(=O)[C@H](C)NC(=O)[C@H](CC(C)C)NC(=O)[C@H](CCCNC(=N)N)NC(=O)[C@H](CCC(N)=O)NC(=O)[C@@H](NC(=O)[C@H](C)NC(=O)[C@@H]1CSSC[C@H](NC(=O)[C@H](CCCCN)NC(=O)CC[C@H](NC(=O)CCCCCCCCCCCCCCCCC(=O)O)C(=O)O)C(=O)N[C@@H](CC(N)=O)C(=O)N[C@@H]([C@@H](C)O)C(=O)N[C@@H](C)C(=O)N[C@@H]([C@@H](C)O)C(=O)N1)[C@@H](C)O)C(C)C)C(=O)N[C@@H](CC(C)C)C(=O)N1CCC[C@H]1C(=O)N1CCC[C@H]1C(=O)N[C@H](C(=O)N[C@@H](CCCNC(=N)N)C(=O)N[C@H](C(=O)NCC(=O)N[C@@H](CO)C(=O)N[C@@H](CC(N)=O)C(=O)N[C@H](C(=O)N[C@@H](Cc1ccc(O)cc1)C(N)=O)[C@@H](C)O)C(C)C)[C@@H](C)O [Peptide 71, C18diacid-γE-K[CNTATC]ATQRLANFLVHSS(Aib)NFGPILPPTRVGSNTY-amide] ({C18 diacid-γGlu}-KCNTATCATQRLANFLVHSS[Aib]NFGPILPPTRVGSNTY-NH2; disulfide 2-7)
EC50 [2]: 1.39 nM | Ratio (selectivity hAMYR vs hCTR, ratio of EC50 values at the two receptors) [3]: 7 | EC50 [3]: 0.211 nM

CC[C@H](C)[C@H](NC(=O)[C@@H]1CCCN1C(=O)CNC(=O)[C@H](Cc1ccccc1)NC(=O)[C@H](CC(N)=O)NC(=O)C(C)(C)NC(=O)[C@H](CO)NC(=O)[C@H](CO)NC(=O)[C@H](Cc1c[nH]cn1)NC(=O)[C@@H](NC(=O)[C@H](CC(C)C)NC(=O)[C@H](Cc1ccccc1)NC(=O)[C@H](CC(N)=O)NC(=O)[C@H](C)NC(=O)[C@H](CC(C)C)NC(=O)[C@H](CCCNC(=N)N)NC(=O)[C@H](CCC(N)=O)NC(=O)[C@@H](NC(=O)[C@H](C)NC(=O)[C@@H]1CSSC[C@H](NC(=O)[C@@H](N)CCCCNC(=O)CC[C@H](NC(=O)CC[C@H](NC(=O)CCCCCCCCCCCCCCCCC(=O)O)C(=O)O)C(=O)O)C(=O)N[C@@H](CC(N)=O)C(=O)N[C@@H]([C@@H](C)O)C(=O)N[C@@H](C)C(=O)N[C@@H]([C@@H](C)O)C(=O)N1)[C@@H](C)O)C(C)C)C(=O)N[C@@H](CC(C)C)C(=O)N1CCC[C@H]1C(=O)N1CCC[C@H]1C(=O)N[C@H](C(=O)NC(C)(C)C(=O)N[C@H](C(=O)NCC(=O)N[C@@H](CO)C(=O)N[C@@H](CC(N)=O)C(=O)N[C@H](C(=O)N[C@@H](Cc1ccc(O)cc1)C(N)=O)[C@@H](C)O)C(C)C)[C@@H](C)O [Peptide 89, K(γE-γE-C18diacid)[CNTATC]ATQRLANFLVHSS(Aib)NFGPILPPT(Aib)VGSNTY-amide] (H-K([γGlu-γGlu-C18 diacid])CNTATCATQRLANFLVHSS[Aib]NFGPILPPT[Aib]VGSNTY-NH2; disulfide 2-7; N-terminus assumed)
Ratio (selectivity hAMYR vs hCTR, ratio of EC50 values at the two receptors) [3]: 18

CC[C@H](C)[C@H](NC(=O)[C@@H]1CCCN1C(=O)CNC(=O)[C@](C)(Cc1ccccc1)NC(=O)[C@H](CC(N)=O)NC(=O)[C@H](CC(N)=O)NC(=O)[C@H](CO)NC(=O)[C@H](CO)NC(=O)[C@H](Cc1c[nH]cn1)NC(=O)[C@H](CCCNC(=N)N)NC(=O)[C@H](CC(C)C)NC(=O)[C@H](Cc1ccccc1)NC(=O)[C@H](CC(N)=O)NC(=O)[C@H](C)NC(=O)[C@H](CC(C)C)NC(=O)[C@H](CCCNC(=N)N)NC(=O)[C@H](CCC(N)=O)NC(=O)[C@@H](NC(=O)[C@H](C)NC(=O)[C@@H]1CSSC[C@H](NC(=O)[C@@H](N)CCCCNC(=O)CC[C@H](NC(=O)CCCCCCCCCCCCCCCCC(=O)O)C(=O)O)C(=O)N[C@@H](CC(N)=O)C(=O)N[C@@H]([C@@H](C)O)C(=O)N[C@@H](C)C(=O)N[C@@H]([C@@H](C)O)C(=O)N1)[C@@H](C)O)C(=O)N[C@@H](CC(C)C)C(=O)N1CCC[C@H]1C(=O)N1CCC[C@H]1C(=O)N[C@H](C(=O)N[C@@H](CCC(=O)O)C(=O)N[C@H](C(=O)NCC(=O)N[C@@H](CO)C(=O)N[C@@H](CC(N)=O)C(=O)N[C@H](C(=O)N[C@@H](Cc1ccc(O)cc1)C(N)=O)[C@@H](C)O)C(C)C)[C@@H](C)O [Peptide 16, K(γE-C18diacid)[CNTATC]ATQRLANFLRHSSNN(αMePhe)GPILPPTEVGSNTY-amide] (H-K([γGlu-C18 diacid])CNTATCATQRLANFLRHSSNN[αMeF]GPILPPTEVGSNTY-NH2; disulfide 2-7; N-terminus assumed)
EC50 [2]: 2.02 nM
